Values quoted from earlier work as cited in PMC9516332 (Frontiers in Oncology, 2022).
Read-outs that look alike come from different tables or passages of the source.

What was measured:
Conditions in all cases: cited from earlier work
[1] = molecular target: T1, panel of 255 wild-type kinases (Homo sapiens, UniProt O15146)
T1 sequence (O15146 24-869): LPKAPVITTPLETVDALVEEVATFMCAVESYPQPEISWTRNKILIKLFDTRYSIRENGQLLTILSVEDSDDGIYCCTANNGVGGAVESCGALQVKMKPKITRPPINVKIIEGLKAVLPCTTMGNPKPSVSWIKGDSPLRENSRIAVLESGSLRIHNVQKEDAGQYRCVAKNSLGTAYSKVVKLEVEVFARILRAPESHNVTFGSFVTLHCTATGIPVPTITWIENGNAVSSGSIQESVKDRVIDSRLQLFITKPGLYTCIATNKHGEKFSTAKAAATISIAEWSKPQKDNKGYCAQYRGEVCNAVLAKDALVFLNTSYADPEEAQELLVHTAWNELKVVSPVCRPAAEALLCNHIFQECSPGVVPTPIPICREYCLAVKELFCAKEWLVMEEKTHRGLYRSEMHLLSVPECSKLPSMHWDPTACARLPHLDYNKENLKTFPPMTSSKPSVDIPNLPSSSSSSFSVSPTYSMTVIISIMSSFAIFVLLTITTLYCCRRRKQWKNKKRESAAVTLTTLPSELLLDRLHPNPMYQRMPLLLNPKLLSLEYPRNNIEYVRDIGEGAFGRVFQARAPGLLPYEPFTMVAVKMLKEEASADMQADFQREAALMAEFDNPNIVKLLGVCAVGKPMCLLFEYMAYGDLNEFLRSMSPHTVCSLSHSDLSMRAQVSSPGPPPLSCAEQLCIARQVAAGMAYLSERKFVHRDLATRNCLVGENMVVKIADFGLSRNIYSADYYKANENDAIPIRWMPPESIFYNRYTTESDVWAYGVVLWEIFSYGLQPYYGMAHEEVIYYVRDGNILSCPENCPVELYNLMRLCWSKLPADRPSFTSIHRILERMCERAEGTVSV

[2] = molecular target: panel of 255 wild-type kinases (Homo sapiens, UniProt P04626)
[3] = molecular target: panel of 255 wild-type kinases (Homo sapiens, UniProt P45983)
[4] = molecular target: panel of 255 wild-type kinases (Homo sapiens, UniProt Q13164)
[5] = molecular target: panel of 255 wild-type kinases (Homo sapiens, UniProt Q15208)
[6] = molecular target: panel of 255 wild-type kinases (Homo sapiens, UniProt Q15303)
[7] = molecular target: T2, panel of 255 wild-type kinases (Homo sapiens, UniProt Q8TDC3)
T2 sequence (Q8TDC3 1-778): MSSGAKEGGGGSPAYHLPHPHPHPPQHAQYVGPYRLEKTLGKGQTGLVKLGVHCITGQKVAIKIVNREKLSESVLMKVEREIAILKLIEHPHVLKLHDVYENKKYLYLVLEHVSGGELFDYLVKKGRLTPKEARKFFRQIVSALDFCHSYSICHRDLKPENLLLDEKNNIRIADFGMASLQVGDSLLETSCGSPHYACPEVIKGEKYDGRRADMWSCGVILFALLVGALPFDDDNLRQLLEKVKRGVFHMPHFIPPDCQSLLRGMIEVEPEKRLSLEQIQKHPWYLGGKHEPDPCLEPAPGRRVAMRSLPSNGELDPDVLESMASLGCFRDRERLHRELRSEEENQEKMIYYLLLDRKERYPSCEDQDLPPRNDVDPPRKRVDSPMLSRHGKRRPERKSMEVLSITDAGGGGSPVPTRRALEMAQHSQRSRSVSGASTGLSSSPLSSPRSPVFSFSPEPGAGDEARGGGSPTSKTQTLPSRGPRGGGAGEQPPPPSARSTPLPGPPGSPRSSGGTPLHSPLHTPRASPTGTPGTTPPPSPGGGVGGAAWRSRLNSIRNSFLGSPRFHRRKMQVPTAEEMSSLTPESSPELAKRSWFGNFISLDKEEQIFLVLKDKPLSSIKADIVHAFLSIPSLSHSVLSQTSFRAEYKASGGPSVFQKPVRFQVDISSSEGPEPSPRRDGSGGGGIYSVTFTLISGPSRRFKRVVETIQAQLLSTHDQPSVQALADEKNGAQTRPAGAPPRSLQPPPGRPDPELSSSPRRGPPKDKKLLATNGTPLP

[8] = molecular target: T3, panel of 255 wild-type kinases (Homo sapiens, UniProt Q96BR1)
T3 sequence (Q96BR1 1-496): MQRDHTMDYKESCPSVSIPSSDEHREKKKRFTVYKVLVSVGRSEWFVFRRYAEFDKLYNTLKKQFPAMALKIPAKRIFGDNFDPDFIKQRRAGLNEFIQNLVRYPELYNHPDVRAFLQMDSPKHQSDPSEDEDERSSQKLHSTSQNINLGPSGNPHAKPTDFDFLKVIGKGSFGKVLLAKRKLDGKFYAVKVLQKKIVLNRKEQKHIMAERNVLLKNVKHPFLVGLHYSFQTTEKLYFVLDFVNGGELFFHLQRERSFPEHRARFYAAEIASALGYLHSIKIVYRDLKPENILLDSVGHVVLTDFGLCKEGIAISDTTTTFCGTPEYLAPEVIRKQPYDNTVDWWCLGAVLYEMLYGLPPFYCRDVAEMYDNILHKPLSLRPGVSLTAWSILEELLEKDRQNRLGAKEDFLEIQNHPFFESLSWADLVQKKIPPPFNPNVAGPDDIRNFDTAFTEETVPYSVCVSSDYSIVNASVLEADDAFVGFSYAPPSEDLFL

[9] = MUSK, 1 µmol/L single concentration, ref DOI: 10.1158/1535-7163.MCT-18-0877
[10] = kinase HER2, 1 µmol/L single concentration, ref DOI: 10.1158/1535-7163.MCT-18-0877
[11] = kinase JNK1, 1 µmol/L single concentration, ref DOI: 10.1158/1535-7163.MCT-18-0877
[12] = kinase Erk5, 1 µmol/L single concentration, ref DOI: 10.1158/1535-7163.MCT-18-0877
[13] = NDR1, 1 µmol/L single concentration, ref DOI: 10.1158/1535-7163.MCT-18-0877
[14] = kinase HER4, 1 µmol/L single concentration, ref DOI: 10.1158/1535-7163.MCT-18-0877
[15] = BRSK1 kinase assay, 1 µmol/L single concentration, ref DOI: 10.1158/1535-7163.MCT-18-0877
[16] = kinase SGK3, 1 µmol/L single concentration, ref DOI: 10.1158/1535-7163.MCT-18-0877
[17] = MUSK, 1 µmol/L single concentration, ref DOI: 10.1371/journal.pone.0092146
[18] = kinase HER2, 1 µmol/L single concentration, ref DOI: 10.1371/journal.pone.0092146
[19] = kinase Erk5, 1 µmol/L single concentration, ref DOI: 10.1371/journal.pone.0092146
[20] = NDR1, 1 µmol/L single concentration, ref DOI: 10.1371/journal.pone.0092146
[21] = kinase HER4, 1 µmol/L single concentration, ref DOI: 10.1371/journal.pone.0092146
[22] = BRSK1 kinase assay, 1 µmol/L single concentration, ref DOI: 10.1371/journal.pone.0092146
[23] = kinase SGK3, 1 µmol/L single concentration, ref DOI: 10.1371/journal.pone.0092146

| SMILES | %-inhibition, MUSK [1, 9] [%] | %-inhibition at 1 µmol/L, HER2 [2, 10] [%] | %-inhibition at 1 µmol/L, JNK1 [3, 11] [%] | %-inhibition at 1 µmol/L, Erk5 [4, 12] [%] | %-inhibition, NDR1 [5, 13] [%] | %-inhibition at 1 µmol/L, HER4 [6, 14] [%] | %-inhibition BRSK1 [7, 15] [%] | %-inhibition at 1 µmol/L, SGK3 [8, 16] [%] | %-inhibition at 1 µmol/L, JNK1 [3] [%] | %-inhibition, MUSK [1, 17] [%] | %-inhibition at 1 µmol/L, HER2 [2, 18] [%] | %-inhibition at 1 µmol/L, Erk5 [4, 19] [%] | %-inhibition, NDR1 [5, 20] [%] | %-inhibition at 1 µmol/L, HER4 [6, 21] [%] | %-inhibition BRSK1 [7, 22] [%] | %-inhibition at 1 µmol/L, SGK3 [8, 23] [%] | also measured |
| --- | --- | --- | --- | --- | --- | --- | --- | --- | --- | --- | --- | --- | --- | --- | --- | --- | --- |
| C=CC(=O)Nc1cc(Nc2nccc(-c3cn(C)c4ccccc34)n2)c(OC)cc1N(C)CCN(C)C [osimertinib] | 8 | 100 | -2.12 | 10 | 13 | 96 | -12 | 3.6 |  |  |  |  |  |  |  |  |  |
| CC#CC(=O)N1CCC[C@H]1c1nc(-c2ccc(C(=O)Nc3ccccn3)cc2)c2c(N)nccn12 [acalabrutinib] | -0.581 | 16 | -0.882 | -2.12 | -6.32 | 78 | -1.79 | -12 |  |  |  |  |  |  |  |  |  |
| COc1cc(N2CCC(N3CCN(C)CC3)CC2)ccc1Nc1ncc(Cl)c(Nc2ccccc2P(C)(C)=O)n1 [brigatinib] |  |  |  |  |  |  |  |  | 40 |  |  |  |  |  |  |  | %-inhibition, MUSK [1]: 82%; %-inhibition at 1 µmol/L, HER2 [2]: 69%; %-inhibition at 1 µmol/L, Erk5 [4]: 96%; %-inhibition, NDR1 [5]: 63%; %-inhibition at 1 µmol/L, HER4 [6]: 99%; %-inhibition BRSK1 [7]: 84%; %-inhibition at 1 µmol/L, SGK3 [8]: -2.26% |
| CCCS(=O)(=O)Nc1ccc(F)c(C(=O)c2c[nH]c3ncc(-c4ccc(Cl)cc4)cc23)c1F [vemurafenib] |  |  |  |  |  |  |  |  | 1.47 | -0.285 | 2 | 0.709 | -3.81 | 11 | -8 | -2.38 |  |
| CCc1cc2c(cc1N1CCC(N3CCOCC3)CC1)C(C)(C)c1[nH]c3cc(C#N)ccc3c1C2=O [alectinib] | 6 | -1.77 | 3.24 | -1.24 | 1.29 | 34 | 8.48 | 1.51 |  |  |  |  |  |  |  |  |  |
| CC(=O)Nc1cccc(-n2c(=O)n(C3CC3)c(=O)c3c(Nc4ccc(I)cc4F)n(C)c(=O)c(C)c32)c1 [trametinib] |  |  |  |  |  |  |  |  |  | -0.929 | -5.36 | -2.55 | -1.68 | 2.34 | -6 | 0.769 | %-inhibition at 1 µmol/L, JNK1 ([3]; kinase JNK1, 1 µmol/L single concentration, ref DOI: 10.1371/journal.pone.0092146): -4.68% |
